Measured values reported in ChEMBL document CHEMBL5537177, “Discovery of Potent Antimalarial Type II Kinase Inhibitors with Selectivity over Human Kinases” (J Med Chem, 2024).
Activity calls are given as the source filed them. The rule behind the calls is not given here.

Tests used:
Ephrin type-A receptor 2 = Ephrin type-A receptor 2 (Homo sapiens, UniProt P29317); assay: Inhibition of human EphA2 by FRET assay
Plasmodium falciparum [1] = assay: Antiplasmodial activity against multidrug-resistant Plasmodium falciparum Dd2 at ring stage infected in A+ erythrocytes assessed as parasite growth reduction incubated for 72 hrs by SYBR Green I dye based analysis; assay type: functional, organism-based; details: Dd2, Erythrocyte
Plasmodium falciparum [2] = assay: Antiplasmodial activity against drug-sensitive Plasmodium falciparum 3D7 at ring stage infected in A+ erythrocytes assessed as parasite growth reduction incubated for 72 hrs by SYBR Green I dye based analysis; assay type: functional, organism-based; details: 3D7, Erythrocyte
HepG2 = assay: Cytotoxicity against human HepG2 cells assessed as reduction in cell viability incubated for 48 hrs by MTS assay; assay type: toxicity, cell-based; details: hepg2
[3] = Selectivity index, ratio of EC50 for human HepG2 cells to EC50 for multidrug-resistant Plasmodium falciparum Dd2 at ring stage infected in A+ erythrocytes; assay type: toxicity, cell-based; details: read-out: Ratio EC50
MCF7 = assay: Cytotoxicity against human MCF7 cells assessed as reduction in cell viability incubated for 48 hrs by MTS assay; assay type: toxicity, cell-based; details: mcf7
[4] = Metabolic stability in mouse liver microsomes assessed as half life; assay type: ADME, Liver cells
[5] = Metabolic stability in mouse liver microsomes assessed as intrinsic clearance; assay type: ADME, Liver cells
[6] = Half life in mouse at 2 mg/kg, iv; assay type: ADME, organism-based; details: in vivo
[7] = Tmax in mouse at 2 mg/kg, iv; assay type: ADME, organism-based; details: in vivo
[8] = AUC (infinity) in mouse at 2 mg/kg, iv; assay type: ADME, organism-based; details: in vivo
[9] = Volume of distribution at steady state in mouse at 2 mg/kg, iv; assay type: ADME, organism-based; details: in vivo, read-out: Vdss
[10] = Half life in mouse at 10 mg/kg, po; assay type: ADME, organism-based; details: in vivo
[11] = Tmax in mouse at 10 mg/kg, po; assay type: ADME, organism-based; details: in vivo
[12] = Cmax in mouse at 10 mg/kg, po; assay type: ADME, organism-based; details: in vivo
[13] = AUC (infinity) in mouse at 10 mg/kg, po; assay type: ADME, organism-based; details: in vivo
[14] = Oral bioavailability in mouse at 10 mg/kg; assay type: ADME, organism-based; details: in vivo
Plasmodium berghei [15] = assay: Antimalarial activity against Plasmodium berghei sporozoites expressing luciferase infected in human HepG2-A16-CD81 cells assessed as reduction in parasite growth incubated for 18 hrs; assay type: functional, organism-based; details: HepG2-A16-CD81, 18 h
Plasmodium berghei [16] = assay: (§1) Antimalarial activity against […] Plasmodium berghei sporozoites expressing GFP-Luc SMcon infected in Swiss Webster mouse assessed as reduction in parasitemia at 15 to 50 mg/kg, iv pretreated for 6 hrs followed by parasite infection measured for 2 to 16 days post-infection by SYBR Green I dye based flow cytometry; assay type: functional, organism-based; details: dose 15-50 mg/kg, time 2.25-16.25 day
Plasmodium berghei [17] = assay: as §1, with “decrease” for “reduction”, “recrudescence” for “parasitemia”, “after 90” for “for 2 to 16”; assay type: functional, organism-based; details: dose 15-50 mg/kg, time 90.25 day
Plasmodium berghei [18] = assay: as §1, with “15” for “15 to 50”, “pre-infected with mouse RBC containing Plasmodium berghei sporozoites” for “pretreated for 6 hrs”, “compound administration” for “parasite infection”; assay type: functional, organism-based; details: Erythrocyte, time 2-16 day
Plasmodium falciparum [19] = assay: Antimalarial activity against synchronous blood-stage Plasmodium falciparum 3D7 assessed as log of parasite reduction ratio at 10 times EC50 treated every 24 hrs for 120 hrs followed by compound washout and subsequent addition of RBCs measured after 21 days; assay type: functional
Plasmodium falciparum [20] = assay: Antimalarial activity against synchronous blood-stage Plasmodium falciparum 3D7 assessed as parasite clearance time at 10 times EC50 treated every 24 hrs for 120 hrs followed by compound washout and subsequent addition of RBCs measured after 21 days by parasite reduction ratio assay; assay type: functional
Plasmodium falciparum [21] = assay: Antimalarial activity against synchronized Plasmodium falciparum Dd2 assessed as delay in rightward shift of YOYO-1 peak at 5 times EC50 treated 18 to 30 hrs post-invasion measured after 54 hrs post-invasion by flow cytometry; assay type: functional, organism-based; details: time 24-36 hrs
Plasmodium falciparum [22] = assay: Antimalarial activity against synchronized Plasmodium falciparum Dd2 assessed as malformation of parasites at 5 times EC50 treated 18 to 30 hrs post-invasion measured after 54 hrs post-invasion by Geimsa staining based microscopy; assay type: functional, organism-based; details: time 24-36 hrs
Plasmodium falciparum [23] = assay: Antimalarial activity against synchronized Plasmodium falciparum Dd2 at 5 times EC50 treated 42 hrs post-invasion measured after 54 hrs post-invasion by YOYO-1 staining based flow cytometry; assay type: functional, organism-based; details: time 12.0 hrs
Plasmodium falciparum [24] = assay: Antimalarial activity against synchronized Plasmodium falciparum Dd2 assessed as aberrant morphology of parasites at 5 times EC50 treated 42 hrs post-invasion measured after 54 hrs post-invasion by Geimsa staining based microscopy; assay type: functional, organism-based; details: time 12.0 hrs
Plasmodium falciparum [25] = assay: Antimalarial activity against synchronized Plasmodium falciparum Dd2 assessed as reduction in parasite growth at early asexual stage treated 16 hrs post-invasion measured after 72 hrs by SYBR green I dye based microscopy; assay type: functional, organism-based
Plasmodium falciparum [26] = assay: Antimalarial activity against synchronized Plasmodium falciparum Dd2 assessed as reduction in parasite growth at early asexual stage treated 26 hrs post-invasion measured after 72 hrs by SYBR green I dye based microscopy; assay type: functional, organism-based
Plasmodium falciparum [27] = assay: Antimalarial activity against synchronized Plasmodium falciparum Dd2 assessed as reduction in parasite growth at early asexual stage treated 36 hrs post-invasion measured after 72 hrs by SYBR green I dye based microscopy; assay type: functional, organism-based
Plasmodium falciparum [28] = assay: (§2) Antimalarial activity against artemisinin/piperaquine-resistant synchronized early ring stage Plasmodium falciparum IPC 6261 (MRA-1284) clinical isolate assessed as decrease in parasite survival at ring stage at 10 times EC50 treated for 6 hrs followed by compound removal measured after 72 hrs by geimsa staining based microscopy; assay type: functional, organism-based
Plasmodium falciparum [29] = assay: as §2, with “for 48” for “for 6”; assay type: functional, organism-based
Plasmodium falciparum [30] = assay: as §2, with “for 6 to 48 hrs followed” for “for 6 hrs followed”; assay type: functional, organism-based
Plasmodium falciparum [31] = assay: Antimalarial activity against patient-derived ring-stage Plasmodium falciparum clinical isolate from Tororo town of Uganda infected in O+ RBCs assessed as reduction in parasitemia incubated for 72 hrs by SYBR green I dye based analysis; assay type: functional, organism-based, RBC; details: Erythrocyte
Plasmodium falciparum [32] = assay: Antimalarial activity against patient-derived ring-stage Plasmodium falciparum clinical isolate from Busiu town of Uganda infected in O+ RBCs assessed as reduction in parasitemia incubated for 72 hrs by SYBR green I dye based analysis; assay type: functional, organism-based, RBC; details: Erythrocyte
Plasmodium falciparum [33] = assay: Antimalarial activity against ring-stage Plasmodium falciparum Dd2 infected in O+ RBCs assessed as reduction in parasitemia incubated for 72 hrs by SYBR green I dye based analysis; assay type: functional, organism-based, RBC; details: Dd2, Erythrocyte
Plasmodium falciparum [34] = assay: Antimalarial activity against ring-stage Plasmodium falciparum 3D7 infected in O+ RBCs assessed as reduction in parasitemia incubated for 72 hrs by SYBR green I dye based analysis; assay type: functional, organism-based, RBC; details: 3D7, Erythrocyte
Plasmodium falciparum [35] = assay: Antimalarial activity against Plasmodium falciparum harboring AcAS A597V mutation assessed as reduction in parasitemia incubated for 72 hrs by SYBR green I dye based analysis; assay type: functional, organism-based
Plasmodium falciparum [36] = assay: Resistance development in blood-stage Plasmodium falciparum Dd2-B2 assessed as drug irresistibility at 1 to 2 times EC50 measured till death; assay type: functional, organism-based
Plasmodium falciparum [37] = assay: Antimalarial activity in blood-stage Plasmodium falciparum Dd2-B2 infected in human O+ erythrocytes assessed as minimum inoculum of resistance at 3 times […] measured for 50 days by blood smear analysis; assay type: functional; details: time 50 day

Chain of Ephrin type-A receptor 2 (P29317 whole entry): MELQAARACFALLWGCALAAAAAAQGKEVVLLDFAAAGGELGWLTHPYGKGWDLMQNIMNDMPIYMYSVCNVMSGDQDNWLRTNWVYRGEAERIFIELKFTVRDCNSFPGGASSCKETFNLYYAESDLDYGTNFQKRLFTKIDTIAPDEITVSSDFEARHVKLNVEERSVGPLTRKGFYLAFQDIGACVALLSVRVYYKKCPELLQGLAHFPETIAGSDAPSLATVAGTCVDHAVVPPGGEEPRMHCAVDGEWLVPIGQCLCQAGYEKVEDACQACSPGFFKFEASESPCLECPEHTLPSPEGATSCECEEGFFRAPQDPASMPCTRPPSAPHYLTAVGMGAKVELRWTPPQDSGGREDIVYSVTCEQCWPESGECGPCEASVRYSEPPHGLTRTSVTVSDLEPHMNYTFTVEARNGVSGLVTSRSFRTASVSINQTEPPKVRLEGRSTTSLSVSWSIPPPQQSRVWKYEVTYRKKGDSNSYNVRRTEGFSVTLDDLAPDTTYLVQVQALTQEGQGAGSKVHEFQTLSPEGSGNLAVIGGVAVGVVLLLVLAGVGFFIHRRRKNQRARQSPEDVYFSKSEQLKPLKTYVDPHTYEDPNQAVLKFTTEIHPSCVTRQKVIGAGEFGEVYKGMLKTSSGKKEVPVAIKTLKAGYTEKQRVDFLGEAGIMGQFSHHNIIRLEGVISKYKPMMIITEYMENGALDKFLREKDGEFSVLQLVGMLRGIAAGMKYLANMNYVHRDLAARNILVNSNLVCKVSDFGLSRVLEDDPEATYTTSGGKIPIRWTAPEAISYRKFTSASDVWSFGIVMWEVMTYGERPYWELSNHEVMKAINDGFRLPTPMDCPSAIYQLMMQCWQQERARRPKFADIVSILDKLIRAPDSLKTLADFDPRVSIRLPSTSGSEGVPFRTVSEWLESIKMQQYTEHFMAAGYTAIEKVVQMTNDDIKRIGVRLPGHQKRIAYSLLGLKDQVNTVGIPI

CCN1CCN(Cc2ccc(NC(=O)c3cc(Cl)cc(NC(=O)c4cncc(-c5cccs5)c4)c3)cc2C(F)(F)F)CC1
IC50 (Ephrin type-A receptor 2): > 10 µM
EC50 (Plasmodium falciparum [1]): 58 nM
EC50 (Plasmodium falciparum [2]): 42 nM
EC50 (HepG2): 2590 nM
selectivity ratio [3]: 45
EC50 (MCF7): 3.51 µM
t1/2 [4]: 79.5 min
intrinsic clearance [5]: 9 µL/min/mg
half-life [6]: 250 min
Tmax [7]: 4.8 min
AUC(0-inf) [8]: 8160 ng·h/mL
Vd [9]: 0.84 L/kg
half-life [10]: 343 min
Tmax [11]: 4.67 h
Cmax [12]: 153 ng/mL
AUC(0-inf) [13]: 1640 ng·h/mL
bioavailability [14]: 4.8%
EC50 (Plasmodium berghei [15]): 1770 nM
Activity (Plasmodium berghei [16]): Active
Activity (Plasmodium berghei [17]): Active
Activity (Plasmodium berghei [18]): Active
log(activity) (Plasmodium falciparum [19]): 3.75
T99.9% (Plasmodium falciparum [20]): < 32 h
Activity (Plasmodium falciparum [21]): Active
Activity (Plasmodium falciparum [22]): Active
Activity (Plasmodium falciparum [23]): Active
Activity (Plasmodium falciparum [24]): Active
EC50 (Plasmodium falciparum [25]): 37.2 nM
EC50 (Plasmodium falciparum [26]): 69.7 nM
EC50 (Plasmodium falciparum [27]): 80 nM
Activity (Plasmodium falciparum [28]): inactive
Activity (Plasmodium falciparum [29]): Active
EC50 (Plasmodium falciparum [30]): 108 nM
EC50 (Plasmodium falciparum [31]): 9.2 nM
EC50 (Plasmodium falciparum [32]): 9.2 nM
EC50 (Plasmodium falciparum [33]): 22.9 nM
EC50 (Plasmodium falciparum [34]): 10.2 nM
EC50 (Plasmodium falciparum [35]): 40.5 nM
Activity (Plasmodium falciparum [36]): Active
Activity (Plasmodium falciparum [37]): >7
